Assay results as given in ChEMBL document CHEMBL4610047, “Design, synthesis and anti-Alzheimer's disease activity study of xanthone derivatives based on multi-target strategy” (Bioorg Med Chem Lett, 2020).
Activity calls are given as the source filed them. The rule behind the calls is not given here.

Tests used:
Cholinesterase = Cholinesterase (Equus caballus, UniProt P81908); test: Inhibition of equine serum BChE using butyrylthiocholine as substrate by Ellman's method
[1] = Metal chelating activity assessed as compound-Cu2+ complex formation by measuring band wavelength at 10 uM in presence of CuCl2 after 30 mins by UV-visible spectrophotometric analysis
Acetylcholinesterase = Acetylcholinesterase (Electrophorus electricus, UniProt O42275); test: Inhibition of electric eel AChE using acetylthiocholine iodide as substrate by Ellman's method
Chain of Acetylcholinesterase (O42275 whole entry): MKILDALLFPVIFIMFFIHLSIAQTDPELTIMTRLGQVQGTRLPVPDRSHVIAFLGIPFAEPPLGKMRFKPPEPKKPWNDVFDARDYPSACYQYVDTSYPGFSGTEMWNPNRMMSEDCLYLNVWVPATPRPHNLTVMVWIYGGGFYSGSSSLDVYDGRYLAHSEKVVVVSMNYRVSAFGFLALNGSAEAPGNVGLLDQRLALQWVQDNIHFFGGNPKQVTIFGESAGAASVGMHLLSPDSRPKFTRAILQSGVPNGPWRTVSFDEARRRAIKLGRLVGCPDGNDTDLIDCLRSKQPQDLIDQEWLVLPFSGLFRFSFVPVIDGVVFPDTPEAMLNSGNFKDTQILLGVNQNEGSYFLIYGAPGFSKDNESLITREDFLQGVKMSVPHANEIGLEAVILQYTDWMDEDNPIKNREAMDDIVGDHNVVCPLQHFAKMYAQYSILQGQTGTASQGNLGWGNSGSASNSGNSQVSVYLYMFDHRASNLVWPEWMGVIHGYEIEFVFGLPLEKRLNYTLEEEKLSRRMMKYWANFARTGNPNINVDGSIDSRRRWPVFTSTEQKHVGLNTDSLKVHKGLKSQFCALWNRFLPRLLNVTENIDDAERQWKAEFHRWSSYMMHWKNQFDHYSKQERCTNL

[2] = Metal chelating activity assessed as compound-Cu2+ complex stoichiometry ratio of 2:1 at 10 uM in presence of CuCl2 after 30 mins by UV-visible spectrophotometric analysis
[3] = Metal chelating activity assessed as compound-Cu2+ complex formation by measuring stability constant at 10 uM in presence of CuCl2 after 30 mins by UV-visible spectrophotometric analysis
[4] = target: Acetylcholinesterase (Electrophorus electricus) (UniProt O42275); test: Mixed type inhibition of electric eel AChE assessed as increase in Km at 0.16 to 0.64 uM by reciprocal Lineweaver-Burk plot analysis
Chain of Acetylcholinesterase (Electrophorus electricus) (O42275 24-633 limits assumed): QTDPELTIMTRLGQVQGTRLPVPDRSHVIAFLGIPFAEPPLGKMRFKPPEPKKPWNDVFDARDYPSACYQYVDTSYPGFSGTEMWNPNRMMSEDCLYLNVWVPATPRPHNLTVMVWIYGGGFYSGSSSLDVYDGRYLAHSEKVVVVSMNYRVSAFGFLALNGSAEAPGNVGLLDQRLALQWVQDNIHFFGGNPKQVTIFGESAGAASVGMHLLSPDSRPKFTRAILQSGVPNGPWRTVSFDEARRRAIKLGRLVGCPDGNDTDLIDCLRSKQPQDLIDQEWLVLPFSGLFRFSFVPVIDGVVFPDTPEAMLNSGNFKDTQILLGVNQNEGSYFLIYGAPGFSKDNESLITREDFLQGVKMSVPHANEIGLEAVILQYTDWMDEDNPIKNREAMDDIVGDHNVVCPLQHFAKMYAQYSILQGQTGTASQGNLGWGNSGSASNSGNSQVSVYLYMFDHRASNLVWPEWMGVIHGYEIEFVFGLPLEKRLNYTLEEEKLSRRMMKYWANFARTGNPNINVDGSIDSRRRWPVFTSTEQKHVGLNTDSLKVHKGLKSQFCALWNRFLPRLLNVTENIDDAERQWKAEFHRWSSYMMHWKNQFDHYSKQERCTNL

[5] = target: Acetylcholinesterase (Electrophorus electricus) (UniProt O42275); test: Mixed type inhibition of electric eel AChE assessed as decrease in Vmax at 0.16 to 0.64 uM by reciprocal Lineweaver-Burk plot analysis

Chain of Cholinesterase (P81908 whole entry): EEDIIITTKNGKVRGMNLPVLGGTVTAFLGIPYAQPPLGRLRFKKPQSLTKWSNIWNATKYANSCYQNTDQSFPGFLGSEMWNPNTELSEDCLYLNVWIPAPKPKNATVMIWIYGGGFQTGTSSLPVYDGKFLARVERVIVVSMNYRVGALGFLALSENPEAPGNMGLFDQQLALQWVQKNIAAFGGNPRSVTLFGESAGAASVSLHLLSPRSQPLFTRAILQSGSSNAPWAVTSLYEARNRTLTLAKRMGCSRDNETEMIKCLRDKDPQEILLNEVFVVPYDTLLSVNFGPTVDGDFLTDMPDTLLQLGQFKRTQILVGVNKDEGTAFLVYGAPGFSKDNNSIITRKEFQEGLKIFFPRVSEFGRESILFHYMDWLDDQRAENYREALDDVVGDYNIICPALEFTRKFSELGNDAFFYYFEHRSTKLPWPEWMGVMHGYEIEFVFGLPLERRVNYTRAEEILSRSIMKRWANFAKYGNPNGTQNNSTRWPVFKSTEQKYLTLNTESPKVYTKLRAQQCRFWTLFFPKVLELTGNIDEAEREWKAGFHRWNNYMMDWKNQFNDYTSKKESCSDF

| Structure (SMILES) | IC50 (Cholinesterase) | Activity [1] | IC50 (Acetylcholinesterase) | Activity [2] | K [3] | inhibition [4] | inhibition [5] |
| --- | --- | --- | --- | --- | --- | --- | --- |
| CN(C)CCOc1ccc2c(=O)c3c(O)cc(OCCN(C)C)cc3oc2c1 | 18 µM | Active | 2.47 µM | Active | 1.65 ×10⁵ No_unit | – | – |
| O=c1c2ccc(OCCN3CCCC3)cc2oc2cc(OCCN3CCCC3)cc(O)c12 | 3.7 µM | Active | 0.328 µM | Active | 2.67 ×10⁵ No_unit | Active | Active |
| O=c1c2ccc(OCCN3CCCCC3)cc2oc2cc(OCCN3CCCCC3)cc(O)c12 | 4.02 µM | Active | 0.964 µM | Active | 2.16 ×10⁵ No_unit | – | – |
| O=c1c2ccc(OCCN3CCOCC3)cc2oc2cc(OCCN3CCOCC3)cc(O)c12 | > 300 µM | Active | 31.2 µM | Active | 1.14 ×10⁵ No_unit | – | – |
